Source: patent publication US11046954B2, “Targeted protein degradation to attenuate adoptive T-cell therapy associated adverse inflammatory responses” (Dana-Farber Cancer Institute, Inc., priority 2015, dated 2021)
Entries after “also recorded” stand apart in the source; their conditions may differ.

What was measured:
Type in all cases: cell-based
[1] = test system: downstream surrogates of KRAS signaling (e.g. pMEK and pAKT); assay: Immunoblot of NIH3T3 cells expressing FKBP*-KRASG12V: downstream KRAS signaling
Description: (§1) FIG. 19 is an immunoblot of NIH3T3 cells expressing KRASG12V allele fused to FKBP* in the N-terminus or C-terminus. Cells were treated with 500 nM dFKBP7 for the indicated time. Cells were harvested and immunoblotted to measure degradation of FKBP*-KRASG12V and downstream surrogates of KRAS signaling (e.g. pMEK and pAKT).
(§2) FIG. 20 is an immunoblot of NIH3T3 cells expressing FKBP* fused to the N-terminus of KRASG12V treated with luM of the indicated dFKBP heterobifunctional compounds for 24 hours. Cells were harvested and immunoblotted to measure degradation of FKBP*-KRASG12V and downstream surrogates of KRAS signaling (e.g. pMEK and pAKT).
as §2, with “21” for “20”, “with” for “with luM of”, “concentrations of dFKBP13” for “dFKBP heterobifunctional compounds”
(§3) FIG. 22 is an immunoblot of NIH3T3 cells expressing FKBP* fused to the N-terminus of KRASG12V treated with luM dFKBP13 for the indicated time. Cells were harvested and immunoblotted to measure degradation of FKBP*-KRASG12V and downstream surrogates of KRAS signaling (e.g. pMEK and pAKT).
(§4) Cells were treated with 500 nM dFKBP7 for the indicated time. Cells were harvested and immunoblotted to measure degradation of FKBP*-KRAS and downstream surrogates of KRAS signaling (e.g. pMEK and pAKT).
(§5) Western blotting of NIH3T3 cells expressing dTAG-KRASG12V were treated with 1 μM of the indicated dFKBP heterobifunctional compounds for 24 hours. Cells were harvested and immunoblotted to measure degradation of FKBP*-KRAS and downstream surrogates of KRAS signaling (e.g. pMEK and pAKT).
(§6) Western blotting of NIH3T3 cells expressing FKBP* fused to the N-terminus of KRAS treated with the indicated concentrations of dFKBP13 for 24 hours. Cells were harvested and immunoblotted to measure degradation of FKBP*-KRAS and downstream surrogates of KRAS signaling (e.g. pMEK and pAKT).
(§7) To evaluate the kinetic control of targeted degradation of dTAG-KRAS, dFKBP13 was administered by increased duration. Western blotting of NIH3T3 cells expressing FKBP* fused to the N-terminus of KRAS treated with 1 μM dFKBP13 for the indicated time. Cells were harvested and immunoblotted to measure degradation of FKBP*-KRAS and downstream surrogates of KRAS signaling (e.g. pMEK and pAKT).

[2] = test system: FKBP*-KRASG12V; assay: Immunoblot of NIH3T3 cells expressing FKBP* fused to KRASG12V: degradation
Description: as §1, §2
as §3, with “21” for “22”, “the indicated concentrations of” for “luM”, “24 hours.” for “the indicated time.”
as §3, §4, §5, §6, §7

[3] = biological target: T1, FKBP* (Homo sapiens, UniProt P62942, F37V); assay: Immunoblot of 293FT cells (CRBN-WT or CRBN−/−) expressing HA-tagged FKBP*; conditions: for degradation of FKBP*: 100 nM
T1 construct: HA; expressed in transfected cells; host or cells: 293FT cells (CRBN-WT or CRBN-/-)
T1 sequence (P62942 whole entry F37V): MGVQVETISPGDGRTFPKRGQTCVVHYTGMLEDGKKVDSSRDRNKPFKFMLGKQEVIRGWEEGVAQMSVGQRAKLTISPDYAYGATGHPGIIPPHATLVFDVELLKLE
Description: (§8) FIG. 6 is an immunoblot of cells treated with bi-functional molecules described in the present invention. 293FT cells (CRBN-WT or CRBN−/−) expressing either HA-tagged FKBP12WT or FKBP* (also referred to as dFKBP12* herein) were treated with indicated concentrations of dFKBP7 for 4 hours.
(§9) Isogenic 293FT cells (CRBN-WT or CRBN−/−) expressing either FKBP12WT or FKBP* were treated with 100 nM of either dFKBP7 or dFKBP13 for 4 hours.
Isogenic 293FT cells (CRBN-WT or CRBN−/−) expressing HA-tagged FKBP* were treated with the indicated dose of dFKBP13 for 4 hours.
293FT cells (CRBN-WT) expressing HA-tagged FKBP* were treated with 100 nM dFKBP13 for the indicated times. Cells were harvested and protein lysates immunoblotted to measure the kinetics of HA-tagged FKBP* degradation induced by dFKBP13.
(§10) The dTAG is predicated on the selectivity of FKBP* specific ligands over endogenous, wild type FKBP. In 293 T cells expressing wild type FKBP 12 or FKBP*, dFKBP7 induces targeted degradation only in FKBP* expressing cells. An immunoblot of cells treated with bi-functional molecules described in the present invention was performed. 293FT cells (CRBN-WT or CRBN−/−) expressing either HA-tagged FKBP12WT or FKBP* were treated with indicated concentrations of dFKBP7 for 4 hours.
In 293T cells expressing wild type FKBP12 or FKBP*, treatment with dFKBP7 and dFKBP13 induces targeted degradation only in FKBP* expressing cells. Isogenic 293FT cells (CRBN-WT or CRBN−/−) were engineered to express either FKBP12WT or FKBP*. Cells were treated with 100 nM of either dFKBP7 or dFKBP13 for 4 hours before lysates were prepared for western immunoblot analysis.
In an effort to define the optimal concentration of dFKB13 heterobifunctional compounds to induce degradation of FKBP*, degradation was measured upon treatment with increasing concentrations of dFKBP13. Isogenic 293FT cells (CRBN-WT or CRBN−/−) were engineered to expressed HA-tagged FKBP*. Cells were treated with the indicated dose of dFKBP13 for 4 hours before lysates were prepared for western immunoblot analysis.
To evaluate the kinetic control of targeted degradation FKBP*, dFKBP13 was administered by increased duration. 293FT cells (CRBN-WT) were engineered to express HA-tagged FKBP*. Cells were treated with 100 nM dFKBP13 for the indicated times. Cells were harvested and protein lysates immunoblotted to measure the kinetics of HA-tagged FKBP* degradation induced by dFKBP 13.

[4] = biological target: T2, FKBP12WT (Homo sapiens, UniProt P62942); assay: Immunoblot of 293FT cells (CRBN-WT or CRBN−/−) expressing FKBP12WT; conditions: for degradation of FKBP12WT or endogenous FKBP12: isogenic 293FT CRBN-WT or CRBN−/−, 100 nM, 4 hours
T2 construct: HA; expressed in transfected cells; host or cells: 293FT cells (CRBN-WT or CRBN-/-)
T2 sequence (P62942 whole entry): as the sequence (P62942 whole entry F37V) above, with V37F counted along it
Description: as §8, §9
as §10, with “In 293 T cells expressing wild type FKBP 12 or FKBP*, dFKBP7 induces targeted degradation only in FKBP* expressing cells.” left out
Isogenic 293FT cells (CRBN-WT or CRBN−/−) were engineered to express either FKBP12WT or FKBP*. Cells were treated with 100 nM of either dFKBP7 or dFKBP13 for 4 hours before lysates were prepared for western immunoblot analysis.

[5] = isogenic 293FT CRBN-WT or CRBN−/−, 4 hours
[6] = 293FT CRBN-WT or CRBN−/−, indicated concentrations of dFKBP7, 4 hours

Row | Compound | inhibition of downstream signaling (pMEK, pAKT) ([1]; NIH3T3 FKBP*-KRASG12V, 1 μM, 24 hours) | IC50 ([1]; NIH3T3 FKBP*-KRASG12V, indicated concentrations of dFKBP13, 24 hours, read-out: IC50, inhibits downstream signaling) [nM] | time at which degradation of FKBP*-KRASG12V and inhibition of downstream signaling are seen ([2]; 1 μM dFKBP13, indicated time) [h] | degradation of FKBP*-KRASG12V ([2]; 1 μM, 24 hours) | degradation of FKBP*-KRASG12V ([2]; indicated concentrations of dFKBP13, 24 hours) | degradation of FKBP* [3, 5] | degradation of HA-tagged FKBP*, dose dependence ([3]; isogenic 293FT CRBN-WT or CRBN−/−, indicated dose, 4 hours) | degradation of FKBP12WT or endogenous FKBP12 [4] | downstream p-AKT signal ([1]; NIH3T3 N-terminal dTAG-KRAS, 500 nM dFKBP7, indicated time) | degradation of FKBP*-KRASG12V ([2]; 500 nM dFKBP7, indicated time, N-terminal fusion) | degradation of HA-tagged FKBP* [3, 6] | degradation of HA-tagged FKBP12WT [4, 6]
1 | CC[C@H](C(=O)N1CCCC[C@H]1C(=O)O[C@H](CCc1ccc(OC)c(OC)c1)c1cccc(OCC(=O)NCCCCCCOc2cccc3c2C(=O)N(C2CCC(=O)NC2=O)C3=O)c1)c1cc(OC)c(OC)c(OC)c1 (some centres unmarked) [dFKBP13] | inhibition of downstream signaling | > 100 | ≤ 1 | potent degradation | potently degrades dTAG-KRAS at nanomolar concentrations; also recorded: potent degradation | CRBN-dependent degradation of FKBP* | dose- and CRBN-dependent degradation | not FKBP12WT or endogenous FKBP12 |  |  |  | 
2 | CC[C@H](C(=O)N1CCCC[C@H]1C(=O)O[C@H](CCc1ccc(OC)c(OC)c1)c1cccc(OCC(=O)NCCCOCCOCCOCCCNC(=O)COc2cccc3c2C(=O)N(C2CCC(=O)NC2=O)C3=O)c1)c1cc(OC)c(OC)c(OC)c1 (some centres unmarked) [dFKBP7] |  |  |  |  |  | CRBN-dependent degradation of FKBP* |  | not FKBP12WT or endogenous FKBP12 | downstream decrease in p-AKT signal | potent degradation; also recorded: N-terminal FKBP* fusions are active and degraded | CRBN-dependent degradation of FKBP* | not FKBPWT
